One assay deals with T1, E. coli Pol IIIα (Escherichia coli, UniProt P10443).
T1 construct: made in house
The assay is described as follows: Real-time DNA primer extension assay. Set-up: key to rate of activity (slope of fluorescence intensity change over time): slope of fluorescence intensity change per second (made positive). To be noted: for rate of activity (slope of fluorescence intensity change over time): Fig. 1f source data, E. coli PolIIIα; for IC50: Fig. 1f, n = 3, read-out: PolIIIα IC50. Format: biochemical. The source says: DnaE from E. coli was purified as described before[33],[34].
Polymerase activity was monitored in real-time[31],[32] with a 42-nt long 5’ carboxyfluorescein-labelled DNA oligonucleotide template strand (DNASP8_42) annealed to a 30-nt primer oligonucleotide (oMU014). Polymerase activity in this assay is monitored by measuring fluorescence quenching of the labelled DNA template as a result of primer extension by PolC (for details see Supplementary Fig. 1b, c). Both primers were HPLC purified. Primer extension assays were performed in Reaction Buffer (see Gel-based polymerase and exonuclease assays) supplemented with 0.5 mg/mL BSA, 0.05% Tween20 and 25 uM of each dNTP (SRB) in 384-well Black Round Bottom plates (Corning 4514). The polymerase was diluted in the SRB and incubated for at least 5 min in the presence of inhibitor or solvent, with a final solvent concentration of 1%. The reaction was initiated by the addition of an equal volume of DNA substrate in SRB as described below. Fluorescence emission data was collected with a BMG Labtech PHERAstar FSX reader for 30 min at room temperature.
Compounds were dispensed with an Echo acoustic liquid handler (Beckman Coulter). All compounds were dissolved to 1 mM and 10 mM stocks in 100% DMSO and transferred to Echo LDV or PP source plates (Labcyte, Inc., CA), then dispensed to 384-well plates with a Labcyte Echo550 or Echo650 acoustic dispenser at volumes of 2.5 to 100 nL per well. […] A Mantis microfluidic liquid dispenser (Formulatrix) was used to dispense 5 µL polymerase and 5 µL substrate DNA (individually diluted in SRB) per well. […] The final concentration of DNA was 70 nM.
Data were analysed and standard error of the means (SEM) determined in Prism 8.4.2 and 10.2.3 (GraphPad). Raw time-course polymerase activity was plotted against time, with SEM of triplicates determined. The rate of activity (represented by signal quenching) was determined during the first 8 min (linear stage) by calculating the slope of fluorescence intensity change (converted to a positive value) over time (in seconds). The slopes were then normalized to percentage activity (%); per ‘replicate range’, 100% activity was defined as polymerase activity in the absence of inhibitor (polymerase control), and 0% activity was determined in the absence of polymerase (DNA signal; negative control). The SEM was determined between ‘replicate ranges’. The IC50 was determined using the dose-response (inhibition) nonlinear regression ‘[Inhibitor] vs. response (three parameters)’ without constraints.

A further assay deals with C. difficile 630Δerm. Kind of assay: Simplified agar dilution susceptibility of C. difficile carrying plasmid-based polC alleles. Format: cell-based, Clostridioides difficile. The conditions noted are these: for MIC: Clostridioides difficile, 48 h. As to the method:
E. coli strains were cultured aerobically at 37 °C at 180 rpm in Lysogeny Broth (LB) (1% w/v tryptone (Oxoid), 1% w/v NaCl (J.T.Baker), 0.5% w/v yeast extract). C. difficile strains were cultured in Brain Heart Infusion broth (BHI) (3.7% w/v brain heart infusion broth (Oxoid), 0.5% w/v yeast extract). Culturing of C. difficile was carried out anaerobically at 37 °C at 140 rpm in an atmosphere of 85% N2, 10% CO2, and 5% H2, using a Don Whitley VA1000 workstation. For solid media, 1.5% w/v agar (Alfa Aesar) was used. Where appropriate, media were supplemented with 50 mg/L colistin (Cayman Chemical), chloramphenicol (10 mg/L for liquid medium and 20 mg/L for agar plates), 30 mg/L kanamycin, and 15 mg/L thiamphenicol.
DNA fragments were amplified by PCR from total genomic DNA of C. difficile strain 630Δerm[40] with Q5 High-Fidelity DNA Polymerase (NEB), using oligonucleotides oNM-001/oNM-003 (amplifying the polC gene with its presumptive promoter). The oNM-001/oNM-003 PCR fragment was digested using KpnI (Roche) and BamHI (Thermo Scientific). Digesting of plasmid pAP24[65] with enzymes allowed for the isolation of plasmid backbone after agarose gel electrophoresis. The backbone was ligated to the digested PCR fragments and transformed into chemically competent DH5α E. coli cells by heat shock; transformants were selected on media containing chloramphenicol. To generate plasmids carrying variant polC genes, mutations were introduced in the plasmids harbouring wild-type polC using QuikChange Site-Directed Mutagenesis and verified by Sanger sequencing using primers listed in Supplementary Table 3. An overview of all constructed plasmids and strains can be found in Supplementary Table 4 and 5.
E. coli donor strain CA434 was transformed with the plasmid to be transferred and subsequently grown on agar plates containing chloramphenicol and kanamycin. A 1 mL aliquot of 20 h grown liquid E. coli transformant culture was pelleted by centrifugation (2 min at 10,000 x g) and cells were resuspended in 200 µL non-sporulating C. difficile 630Δerm culture. The mixture was plated onto non-selective BHI agar in 5 µL spots and after 20 h incubation, cells were harvested in 1 mL pre-reduced phosphate-buffered saline and plated in 100 µL aliquots on BHI agar supplemented with thiamphenicol and colistin. Putative transconjugants were confirmed by PCRs with primers oWKS-1070 and oWKS-1071 (targeting chromosomal gluD) and oWKS-1387, oWKS-1388, oWKS-1389, and oWKS-1390 (targeting traJ or repA on the plasmid). Note that these strains are merodiploid and carry a wild-type chromosomal copy of polC.
Susceptibilities of the parental and plasmid-carrying strains to IBZ and ACX-801 were determined using a simplified agar dilution method. In short, C. difficile strains were cultured for 20 h in liquid BHI. Bacterial cells were harvested by 10-min centrifugation at 3220 x g and resuspended in pre-reduced phosphate-buffered saline to a McFarland turbidity standard of 1.0. Suspensions were inoculated as 5 µL spots onto BHI agar containing different concentrations of inhibitor (0, 2, 4, 8, 16, 32, 64 mg/L). MICs (defined as the first dilution with severely impaired or no visible growth) were determined after 48 h and imaged on a SCAN500 plate imager (Interscience).

Setting [1] is: plasmid carrying polC-p.F1258I versus wild-type strain.
The mark [2] stands for this setting: plasmid carrying polC-p.F1258L versus wild-type strain.
The mark [3] stands for this setting: plasmid carrying polC-p.F1258S versus wild-type strain.

Values after ≈ are worked out from the molar mass of the structure shown. Values joined by “and” are separate entries in the source; they are usually repeats but may differ in a detail not shown here. Equal values may be shown once.

T1 sequence (P10443 whole entry): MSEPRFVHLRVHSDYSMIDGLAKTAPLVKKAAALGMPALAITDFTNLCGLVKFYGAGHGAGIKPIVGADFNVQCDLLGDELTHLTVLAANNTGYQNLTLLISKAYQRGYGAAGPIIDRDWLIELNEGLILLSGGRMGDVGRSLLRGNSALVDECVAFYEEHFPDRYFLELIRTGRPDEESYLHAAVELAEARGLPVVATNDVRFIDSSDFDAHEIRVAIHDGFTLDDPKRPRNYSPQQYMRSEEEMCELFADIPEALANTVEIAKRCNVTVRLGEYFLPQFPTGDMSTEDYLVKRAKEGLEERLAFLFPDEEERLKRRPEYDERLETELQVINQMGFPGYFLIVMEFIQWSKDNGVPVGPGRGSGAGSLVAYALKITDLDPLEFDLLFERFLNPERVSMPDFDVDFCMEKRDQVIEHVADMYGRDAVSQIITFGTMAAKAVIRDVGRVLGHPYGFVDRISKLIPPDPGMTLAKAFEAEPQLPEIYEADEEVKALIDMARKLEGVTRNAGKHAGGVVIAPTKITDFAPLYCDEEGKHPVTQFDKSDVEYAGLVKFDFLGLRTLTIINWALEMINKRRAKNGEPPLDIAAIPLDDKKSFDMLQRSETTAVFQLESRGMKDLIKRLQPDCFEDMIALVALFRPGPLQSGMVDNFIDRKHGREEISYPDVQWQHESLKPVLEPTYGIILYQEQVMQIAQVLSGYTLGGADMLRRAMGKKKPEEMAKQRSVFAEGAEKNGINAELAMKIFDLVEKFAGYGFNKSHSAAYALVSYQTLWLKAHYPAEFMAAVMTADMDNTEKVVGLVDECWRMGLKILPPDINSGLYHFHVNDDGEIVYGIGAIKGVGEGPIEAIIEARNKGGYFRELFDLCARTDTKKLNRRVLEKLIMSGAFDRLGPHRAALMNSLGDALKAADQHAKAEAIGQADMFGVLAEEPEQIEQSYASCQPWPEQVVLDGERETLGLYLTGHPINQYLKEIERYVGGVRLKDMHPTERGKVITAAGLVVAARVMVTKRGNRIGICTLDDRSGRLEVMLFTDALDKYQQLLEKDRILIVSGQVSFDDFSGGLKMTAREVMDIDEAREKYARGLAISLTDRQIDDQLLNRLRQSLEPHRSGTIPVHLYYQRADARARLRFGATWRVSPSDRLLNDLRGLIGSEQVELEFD

As for `O=c1[nH]c(NCc2ccc3c(c2)OC(F)(F)O3)nc2c(F)nn(CCO)c12` [ACX-801, 5-(((2,2-difluorobenzo[d][1,3]dioxol-5-yl)methyl)amino)-3-fluoro-1-(2-hydroxyethyl)-1,6-dihydro-7H-pyrazolo[4,3-d]pyrimidin-7-one], the “rate of activity (slope of fluorescence intensity change over time)” value on E. coli Pol IIIα (inhibitor 2.5 uM) is 16.3 and 12.4 and 15.4; at E. coli Pol IIIα (inhibitor 4 uM), 16.6 and 16.5 and 16.7; at E. coli Pol IIIα (inhibitor 12.5 uM), 21.1 and 17.1 and 17.2; at E. coli Pol IIIα (inhibitor 20 uM), 17.9 and 17.4 and 20.0; on E. coli Pol IIIα (inhibitor 30 uM) it was 18.5 and 16.7 and 17.5; on E. coli Pol IIIα (inhibitor 45 uM), 13.8 and 14.5 and 13.7. Also, the “rate of activity (slope of fluorescence intensity change over time)” value on E. coli Pol IIIα (inhibitor 67.5 uM) is 17.1 and 17.3 and 12.6; on E. coli Pol IIIα (inhibitor 100 uM), 15.2 and 13.3 and 12.6. Moreover, the IC50 on E. coli Pol IIIα was greater than 100 µM. Also, it took 2 µg/mL (≈ 5.22 µM) to inhibit growth with C. difficile 630Δerm (MIC). The “increase in the MIC” value in the assay with C. difficile 630Δerm (plasmid carrying polC-p.A1263T versus wild-type strain) is “fourfold”. Moreover, the entries for the “increase of MIC” value in the assay with C. difficile 630Δerm (setting [1]), with C. difficile 630Δerm (setting [2]) and with C. difficile 630Δerm (setting [3]) were 32 fold, no less than 32 fold and 4 fold, respectively.
`O=c1[nH]c(NCc2ccc(Cl)c(Cl)c2)nc2ncn(CCN3CCOCC3)c12` [IBZ, N^2-(3,4-dichlorobenzyl)-7-(2-[1-morpholinyl]ethyl)guanine]: the “rate of activity (slope of fluorescence intensity change over time)” value at E. coli Pol IIIα (inhibitor 2.5 uM) was 18.2 and 16.5 and 13.6; at E. coli Pol IIIα (inhibitor 4 uM), 15.9 and 17.9 and 15.0; at E. coli Pol IIIα (inhibitor 12.5 uM) it was 25.0 and 21.1 and 24.7; on E. coli Pol IIIα (inhibitor 20 uM), 29.3 and 21.9 and 23.5; at E. coli Pol IIIα (inhibitor 30 uM), 26.6 and 21.8 and 26.2; at E. coli Pol IIIα (inhibitor 45 uM) it was 27.8 and 27.6 and 30.0. Besides, the “rate of activity (slope of fluorescence intensity change over time)” value at E. coli Pol IIIα (inhibitor 67.5 uM) is 28.5 and 30.7 and 23.6; at E. coli Pol IIIα (inhibitor 100 uM) it was 31.4 and 35.8 and 26.7. In addition, the IC50 at E. coli Pol IIIα is greater than 100 µM. This compound displayed an MIC against C. difficile 630Δerm of 2 µg/mL (≈ 4.72 µM). In addition, the “increase of MIC” value with C. difficile 630Δerm (setting [1]) turned out to be 8 fold; in the assay on C. difficile 630Δerm (setting [2]), 32 fold; in the assay with C. difficile 630Δerm (setting [3]) it was 2 fold.

The values are drawn from PMC12592400, “A unique inhibitor conformation selectively targets the DNA polymerase PolC of Gram-positive priority pathogens” (Nature Communications, 2025).
